Laboratory results: US7683031B2, “Short peptides from the ‘2nd loop’ of 7 transmembrane receptor which selectively modulate signal transduction” (Yissum Research Development Company of the Hebrew …, priority 2002, dated 2010)

How the values were obtained:
[1] = tested on: aortic ring; test: Aortic ring assay (capillary growth ex vivo in collagen matrix gel); type: cell-based, rat; conditions: for aortic ring neovascularization in presence of G-protein inhibitor PTX / aortic ring neovascularization: S1P 100 μm, R002L103 20 μm, FIG. 4; for aortic ring neovascularization in presence of G-protein inhibitor PTX: PTX 100 nm/ml; for aortic ring neovascularization: without PTX; for neovascularization effect, each agent alone / angiogenetic effect, each agent alone: R002L103 20 μg; for angiogenetic effect, each agent alone: VEGF 12 nm/ml
Method: The following are suitable in vivo or ex vivo modes for angiogenesis: • (1) Aortic ring—where sprouting of newly formed blood vessels is tested whole mounts of aortic rings obtained from rats (see below) • (2) Eye assay—where formation of new blood vessels in the cornea of the animal as a response to an FGF-implanted pellet is determined (see below). • (3) Sponge assay—where infiltration of new blood vessels into a sponge implanted s.c. in an experimental animal is determined (see below) • (4) Regression of pre-formed vasculature in tumors (Benjamin L. E. and Kesshet E. PNAS, 94, 8761-8766, (1997)). • (5) Re-establishment of circulation in dissected vessels in the limbs of experimental animals. Experimental Procedures: 1. Aortic Ring-Assay:
The modification of previously described assay (Nicosia, R. F. and Ottinetti, A. “Growth of microvessels in serum-free matrix culture of rat aorta.” Lab. Invest. 63:115-122. 1990) for capillary growth ex vivo was used. The assay is based on the phenomenon of endothelial cells proliferation from freshly prepared aorta placed into collagen matrix gel, that finally formed new capillary system.
The experiments were carried out on two lines of animals—Sabra and Sprague-Dawley rats, males of 200-250 g-body weight (1-2 month old). Rats were acclimated to vivarium for 4-10 days before their use in study protocol. Each group (from 2 to 4) of the animals was housed in separate cage and fed food and water ad libitum.
Animals were sacrificed by decapitation after ether anesthesia Thoracic aortas were dissected and immediately transferred to a Petri dish with bio-mpm-1. The fibroadipose tissue and small vessels around aorta was carefully removed under a dissecting microscope, 1 mm-long aortic rings were sectioned and extensively (2-3 times) rinsed in bio-mpm-1 containing antibiotics (% cat.) (Nicosia and Ottinetti, 1990).
The collagen matrix gel solution (see above) was added to 24-well plate (0.4 ml to each well) and collagen polymerization was allowed for 15 min at 37° C. The aorta rings were transferred to the collagen gel solution (in order to glue them to the bottom layer of the gel) and then placed to the center of each well. In mice, 3 rings are embedded in the same well. After 15 min incubation of the plates at 37° C. another 0.4 ml of the collagen solution was carefully added on the top of the ring. After the gel is formed 0.4 ml of Serum-Free Endothelial Growth Medium (Rhenium, cat. 17601-030) or bio-mpm-1 (Beit Haemeq cat. 05-060-1) was added to each well. Rings were incubated in 37° c. and 10% CO2. Medium is replaced every 2-3 days.
Compound of the invention were added next day after collagen gel formation in concentration 10-20 uM. compounds were dissolved for 10 mM stock in 100% DMSO. Dilution in 0.1% BSA in PBS to 400 uM stock were done for each AR experiment de novo. The compounds were re-added to AR during each medium changing till well developed capillary system in control or experimental wells.
Fixation was carried out by adding of Buffered Formalin 4% (was obtained from BioLab, cat. 66554) 1.5 ml in each well. An hour later solution was changed to fresh Formalin in order to better fixation (overnight).
We used Crystal Violett (Gencian Violett) 0.02% in Ethanol Abs. as staining solution (1 ml for each well overnight at room temperature). After staining, wells were washed massively with 0.02% Sodium Azide water solution during two or three days till transparent matrix.
Digital pictures were analyzed using ImagePro™ software. The total capillary length of at least 6 AR was measured. Dividing the total capillary length to AD diameter normalized the data.

[2] = tested on: B16 cells; test: Melanogenesis in B16 cells (melanin, absorbance 405 nm); type: cell-based; conditions: tbi formulation; for EC50: read-out: EC 50 melanogenesis; for melanogenesis induction: β3-derived peptides up to 2.5 μM, FIG. 14-18
Method: (§1) B16 melanocyet cells were grown in DMEM with 4 mM L-glutamine, supplemented with 10% bovine calf serum in a 37° C. humidified incubator with 5% CO2. The day before the assays, 100 μl of 3×10^4 cells/ml were plated in 96-well microtiter plates overnight.
The day after B16 cells culturing, differential concentrations of stimulator (peptides or αMSH as positive control) were added. The cells were incubated for another 3 days then adding 70 ul of 1N NaOH stopped the reaction. The production of melanin was measured after 24 h as the optical absorbance in […].
“tbi” Formulation: peptides (10 mM final) were dissolved in DMSO (final 8%) and 2M Ammonium Bicarbonate (32% final) were added, the mixture was heated for 40 min then 2M HEPES pH 7.5 60% (final) were added.

[3] = tested on: cornea of mice; test: Eye assay (neovascularization in the cornea after pellet implantation); type: in vivo; conditions: five days after implantation; for blood vessels course of growth: FIG. 10
Method: The modification of the assay previously described in “A model of angiogenesis in the mouse cornea” B. M. Kenyon, E. E. Voest, C. C. Chen, E. Flynn J. Folkman and R. J. D'Amato Investigative Ophthalmology & Visual Science, July 1996, Vol. 37, No. 8 1625-1632 was used. The assay is based on the phenomena of formation of new blood vessels in the cornea of mice in response to the implantation in the cornea of a pellet impregnated with FGF.
1. To prepare—Hydron concentrated stock solution (120 mg/ml in ethanol Abs.) • Hydron diluted stock solution (60 mg/ml in ethanol Abs.) • sucralfate stock solution (500 mg/ml in solution S sterile!). • 10 mg peptide.
2. Add 30 μl of solution S to peptide (or 10 μl of solution S and 20 μl of FGF).
3. Add 20 μl of sucralfate stock solution—vortex, speedvac for 5 min (more if needed).
4. Add […] hydron diluted stock solution to sucralfate+FGF+peptide pellet.
Mice were anesthetized with Ketamin/Rompun Solution (for dosage and solutions preparation see standard anesthetic procedure). The eye is topically anesthetized with Localin (Benoxynate HCl 0.4%, Dr. Fisher, Pharmaceutical Labs, P.O.B. 39071, Tel-Aviv 61390). Using a binocular microscope, a central intrastromal linear keratotomy is performed with a surgical blade parallel to the insertion of the lateral rectus muscle. Approximate length of the cut is 0.5-0.6 mm length. The globe is proptosed with a forceps. A lamellar micropocket is dissected toward the temporal limbus using the modified von Graefe knife 2×30 mm. All following procedures must be done without proptosis. A pellet is placed on the corneal surface in the base of the pocket and advanced to the temporal end of the pocket with one arm of the forceps. The distance between pellet and limbal vessel is measured. For FGF containing pellets, the pocket must be extended within 1 mm of the limbus. Antibiotic and antimycotic ointment are applied to the operated eye to prevent infection and additional irritation of the cornea.
Measurements were done at 5th and 7th days after implantation. In the case of high stimulation inspections were done twice a week till full degradation. The maximum vessel length of neovascularization zone, extending from the limbal vessel toward the pellet was measured. The econtiguous circumferential zone of neovascularization was measured as clock hours (where 30° are equals 1 clock hour.)

[4] = tested on: 3T3L1 adipocytes cells; test: cAMP assay in 3T3L1 adipocytes cells; type: cell-based; conditions: FIG. 13
Method: 3T3L1 fibroblast were maintained in DMEM with 4 mM L-glutamine, supplemented with 10% calf serum in a 37° C. humidified incubator with 5% CO2. To differentiate fibroblast into adipocytes, cells were grown for 2 days after confluence. The media was then changed to DMEM containing 10% fetal bovine serum; 0.5 mM isobutylmethlxanthine; 4 μg/ml dexamethasone. 3 days later cells were maintained in DMEM containing 10% fetal bovine serum for two weeks, after which the cells were used for cAMP assay.
[…] The incubation was stopped by replacing the medium with lysis regent supplied in a commercial cAMP kit.
(§2) cAMP levels were determined using cAMP enzymeimmunoassay (EIA) system Biotra Amersham Pharmacia Biotech.

[5] = tested on: β2-adrenergic transfected HEK293 cells; test: cAMP assay in β2-adrenergic transfected HEK293 cells; type: cell-based; conditions: 10 μM peptide, after 1 h, FIG. 11
Method: The HEK293 cells were grown in Dulbecco's Modified Eagle's medium (DMEM) with 4 mM L-glutamine, supplemented with 10% horse serum in a 37° C. humidified incubator with 5% CO2. HEK293 cells were transfected using the fuGENE 6 Transfection Reagent. The following amounts of each expression plasmid were used for transfection of each well in a 6-well culture plate: 3 ug of pBK-flag β2AR; 3 ug of pRK5-GRK2 or in combination of 1.5 ug of pBK-flag β2AR and pRK5-GRK2. Cells were harvested after 24 h and transferred into 96-well culture plate (10^5 cells/ml) and a cAMP assay was carried out 48 h post transfection.
(§3) At the day of the assay medium was replaced with serum free medium containing 0.5 mM 3-isobutyl-methylxanthine and the experimental peptides were added for 60 min. The incubation was stopped by replacing the medium with lysis regent supplied in a commercial cAMP kit.
as §2

[6] = tested on: B16 cells; test: cAMP assay in B16 cells; type: cell-based; conditions: 10 μM peptide, after 1 h, FIG. 12
Method: as §1, §3, §2

CCCCCCCCCCCCC/C=C/[C@@H](O)[C@@H](N)COP(=O)(O)O [S1P, sphingosine-1-phosphate, reference compound]
aortic ring neovascularization in presence of G-protein inhibitor PTX [1]: completely blocked
aortic ring neovascularization [1]: caused neovascularization

FGF: pro-angiogenetic compound; bFGF, human recombinant, in materials
neovascularization effect, each agent alone ([1]; FGF 10 ng/ml, FIG. 8): no effect

GLLRRHS [K024H107, MC1 receptor Loop 2 derived-modified peptide]
EC50 [2]: 2000 nM
melanogenesis induction [2]: very efficient in inducing melanogenesis

LGLLRRHSI [K024H124, MC1 receptor Loop 2 derived-modified peptide]
EC50 [2]: 150 nM
melanogenesis induction [2]: very efficient in inducing melanogenesis

R002L103: peptide based on sequence SEQ ID NO:3 of the 2nd loop of EDG3 (FIG. 1A) (MRPYDANKR)
neovascularization in the eye in response to implantation of a pellet ([3]; FIG. 9): marked neovascularization
number of blood vessels compared to VEGF ([3]; FIG. 9): larger number of blood vessels
blood vessels course of growth [3]: relatively straight
angiogenesis in aortic rings ([1]; 10 μm and 20 μm R002L103, degree at least equal to that of S1P 100 nm, FIG. 3): increase angiogenesis in a dose dependent manner
capillary length ([1]; 20 μm, FIG. 2): decreased
neovascularization effect, each agent alone ([1]; FGF 10 ng/ml, FIG. 8): no effect
neovascularization, combination with FGF ([1]; R002L103 20 μg + FGF 10 ng/ml, FIG. 8): very significant neovascularization
neovascularization, combination with SCF ([1]; R002L103 20 μg + SCF 30 nm/ml, FIG. 7): marked synergism and significant neovascularization
neovascularization, combination with VEGF ([1]; R002L103 20 μg + VEGF 12 nm/ml, FIG. 6): marked and significant neovascularization
aortic ring neovascularization in presence of G-protein inhibitor PTX [1]: completely blocked
aortic ring neovascularization [1]: caused neovascularization
neovascularization effect, each agent alone ([1]; SCF 30 nm/ml, FIG. 7): no neovascularization effect
angiogenetic effect, each agent alone ([1]; FIG. 6): hardly any angiogenetic effect
capillary length ([1]; from control to 10 μm, FIG. 2): increased
capillary thickness ([1]; various concentrations of R002L103, FIG. 2): directly correlated to the concentration

R013L101: β3-adrenergic Loop 2 derived peptide (GNPLRYGALVT)
level of cAMP increase ([4]; after 60 min of incubation): 18 fold
melanogenesis induction [2]: failed as melanogenesis inducers
cAMP production comparing to the control level [5]: 140%
cAMP production comparing to the control level [6]: 900%

R013L102: β3-adrenergic Loop 2 derived peptide (GLRYGALVTK)
level of cAMP increase ([4]; after 120 min of incubation): did not affect
melanogenesis induction [2]: failed as melanogenesis inducers

R013L103: β3-adrenergic Loop 2 derived peptide (GPLRYGALVT)
level of cAMP increase ([4]; after 120 min of incubation): 18 fold
melanogenesis induction [2]: failed as melanogenesis inducers
cAMP production comparing to the control level [5]: did not affect
cAMP production comparing to the control level [6]: did not affect

SCF: another pro-angiogenetic compound
neovascularization effect, each agent alone ([1]; SCF 30 nm/ml, FIG. 7): no neovascularization effect

VEGF
neovascularization in the eye in response to implantation of a pellet ([3]; FIG. 9): able to induce neovascularization
blood vessels course of growth [3]: more coiled
angiogenetic effect, each agent alone ([1]; FIG. 6): hardly any angiogenetic effect
